According to patent publication US11028102B2, “Methods of using 1-O-acetylbritannilatone spiro aryl isoxazoline compounds” (priority 2017, dated 2021):

Legend:
BMMCs = assay: MTT assay, inhibition of the growth of BMMCs (cell toxicity); format: cell-based; settings: 10 μM
Procedure: (§1) (1) Experimental Animal: a 6-week-old female Balb/C mouse without specific pathogens.
(§2) (2) Extraction Process: the mouse was sacrificed by cervical dislocation. After confirming the death of the mouse, it was immersed in alcohol for 3-5 minutes. The back skin of the mouse was cut with tweezers and scissors on a clean bench. The spleen was removed and placed in a filter. The filter was placed in a petri dish containing serum-free medium. The spleen was grounded into a cell suspension having a cell concentration of 2×10^6 cells/mL. […] of lectins was added, and cell suspension was then cultured in RPMI1640 medium for 5 days. The supernatant was collected. The femur bone of the mouse was removed, and joints of the bone was cut. The bone marrow was washed into a centrifuging tube by using serum-free medium. The bone marrow containing medium was then centrifuged, and the supernatant was discarded and the pellet was red bone marrow.
(§3) (3) Cell Culture: The cells were cultured for 4 weeks with RPMI1640, 10% Gibco FBS, 20% spleen supernatant, 1% AEPS, 1% MEM, and 1% double antibody.
(1) Preparation of MTT Solution: 5 mg/mL MTT solution was prepared by weighing an amount of MTT ((2-(4,5-dimethyl-2-thiazolyl)-3,5-diphenyl-2H-[…]) and dissolving MMT in PBS (solvent), and the solution was then filtered using a 0.22 μm microporous membrane. The solution was light yellow and stored at −20° C.
(2) Method: BMMCs were seeded in 96-well plates at a density of 2×10^5/mL at 100 μL per well, and the compounds of different concentrations were added. 100 μL culture medium and 100 μL PBS were used as blank control. After 7 hours, 20 μL MMT (5 mg/mL) was added to each well. The plates were then placed in an incubator (5% CO2, 37° C.) for 4 hours. After the reaction was complete, the supernatant was discarded, and 150 μL of DMSO was added to each well. After mixing, the absorbance (OD value) was measured at 490 nm using a microplate reader. Cell Viability=(ODcompounds−ODculture medium)/(ODPBS−ODculture medium)×100%

[1] = tested on: Leukotriene C4 (LTC4) production in mouse bone marrow-derived mast cells (BMMCs); assay: Inhibition of LTC4 production/release by IgE/DNP-HSA-stimulated BMMCs (ELISA); format: cell-based; settings: 10 μM
Procedure: as §1, §2, §3
Principle: This experiment is based on the competitive binding of LTC4 to the LTC4-acetylcholinesterase conjugate (LTC4 tracer) to determine the amount of […]. Because the concentration of the LTC4 tracer is constant and the concentration of LTC4 is varied, the amount of LTC4 tracer bound to the LTC4 antiserum is inversely proportional to the amount of LTC4. The antibody-LTC4 complex binds to the murine monoclonal anti-rabbit IgG, while the murine monoclonal anti-rabbit IgG has previously been conjugated to the kit. After the reaction system was stabilized, the unbound reagent was washed away. Ellman's reagent (a […]) was added. […] The color depth was measured by the spectrophotometric method, and is proportional to the amount of LTC4 tracer, which is inversely proportional to the amount of LTC4.
(a) Sample Preparation: culturing mature BMMCs, adding IgE overnight, washing with PBS three times, and then spreading in 96-well plates (1×10^6 cells/well). The test compound solutions were added to plates and the plates were incubated for 1-1.5 hours, stimulating with DNP-HSA for 15 min. The solutions were then centrifuged at 3000 rpm for 3 min at 4° C., and the supernatant was collected and diluted 5-fold with RPMI 1640 to obtain sample solution.
(b) ELISA Kit Reaction: Adding reagents according to the kit instructions, reacting at 4° C. for 18 h, and washing with washing buffer. 200 μL of Ellman's reagent was added to each well, reacting for 40 min.
(c) Measurement of Absorbance: The absorbance was measured at 405 nm.

Row | Structure (SMILES) | Cell Toxicity (%) (BMMCs) | Inhabitation Rate (%) [1]
1 | C=C1C(=O)O[C@@H]2CC(C)=C([C@@H](C)CCCOC(C)=O)[C@H](O)[C@H]12 [ABL, 1-O-acetylbritannilatone] | 1.15% | 35.21%
2 | CC(=O)OCCCC(C)C1=C(C)CC2OC(=O)C3(CC(c4ccccc4)=NO3)C2C1O (centres unmarked) [Compound 2a] | 5.98% | 69.36%
3 | CC(=O)OCCCC(C)C1=C(C)CC2OC(=O)C3(CC(c4ccc(F)cc4)=NO3)C2C1O (centres unmarked) [Compound 2b] | 1.47% | 77.46%
4 | CC(=O)OCCCC(C)C1=C(C)CC2OC(=O)C3(CC(c4ccc(Cl)cc4)=NO3)C2C1O (centres unmarked) [Compound 2c] | 1.88% | 67.43%
5 | CC(=O)OCCCC(C)C1=C(C)CC2OC(=O)C3(CC(c4ccc(Br)cc4)=NO3)C2C1O (centres unmarked) [Compound 2d] | 1.06% | 50.4%
6 | CC(=O)OCCCC(C)C1=C(C)CC2OC(=O)C3(CC(c4ccc(C#N)cc4)=NO3)C2C1O (centres unmarked) [Compound 2e] | −0.66% | 85.49%
7 | CC(=O)OCCCC(C)C1=C(C)CC2OC(=O)C3(CC(c4ccc(C)cc4)=NO3)C2C1O (centres unmarked) [Compound 2f] | −1.06% | −32.88%
8 | COc1ccc(C2=NOC3(C2)C(=O)OC2CC(C)=C(C(C)CCCOC(C)=O)C(O)C23)cc1 (centres unmarked) [Compound 2g] | 7.37% | 0.91%
9 | CC(=O)OCCCC(C)C1=C(C)CC2OC(=O)C3(CC(c4ccc([N+](=O)[O-])cc4)=NO3)C2C1O (centres unmarked) [Compound 2h] | 20.64% | 87.14%
10 | CC(=O)OCCCC(C)C1=C(C)CC2OC(=O)C3(CC(c4ccncc4)=NO3)C2C1O (centres unmarked) [Compound 2i] | 4.26% | 84.84%
11 | CC(=O)OCCCC(C)C1=C(C)CC2OC(=O)C3(CC(c4ccc(O)cc4)=NO3)C2C1O (centres unmarked) [Compound 2j] | −0.9% | 74.36%
12 | CC(=O)OCCCC(C)C1=C(C)CC2OC(=O)C3(CC(c4ccccc4)=NO3)C2C1OC(C)=O (centres unmarked) [Compound 3a] | 5.98% | 79.15%
13 | CC(=O)OCCCC(C)C1=C(C)CC2OC(=O)C3(CC(c4ccc(F)cc4)=NO3)C2C1OC(C)=O (centres unmarked) [Compound 3b] | −1.97% | 89.01%
14 | CC(=O)OCCCC(C)C1=C(C)CC2OC(=O)C3(CC(c4ccc(Cl)cc4)=NO3)C2C1OC(C)=O (centres unmarked) [Compound 3c] | −6.22% | 70.16%
15 | CC(=O)OCCCC(C)C1=C(C)CC2OC(=O)C3(CC(c4ccc(Br)cc4)=NO3)C2C1OC(C)=O (centres unmarked) [Compound 3d] | 9.58% | 89.94%
16 | CC(=O)OCCCC(C)C1=C(C)CC2OC(=O)C3(CC(c4ccc(C#N)cc4)=NO3)C2C1OC(C)=O (centres unmarked) [Compound 3e] | 0.25% | 93.95%

Row | Structure (SMILES) | Cell Toxicity (%) (BMMCs) | Inhabitation Rate (%) [1]
17 | CC(=O)OCCCC(C)C1=C(C)CC2OC(=O)C3(CC(c4ccc(C)cc4)=NO3)C2C1OC(C)=O (centres unmarked) [Compound 3f] | 4.1% | −23.48%
18 | COc1ccc(C2=NOC3(C2)C(=O)OC2CC(C)=C(C(C)CCCOC(C)=O)C(OC(C)=O)C23)cc1 (centres unmarked) [Compound 3g] | 11.12% | 93.19%
19 | CC(=O)OCCCC(C)C1=C(C)CC2OC(=O)C3(CC(c4ccc([N+](=O)[O-])cc4)=NO3)C2C1OC(C)=O (centres unmarked) [Compound 3h] | 6.63% | 84.4%
20 | CC(=O)OCCCC(C)C1=C(C)CC2OC(=O)C3(CC(c4ccncc4)=NO3)C2C1OC(C)=O (centres unmarked) [Compound 3i] | 9.58% | 88.7%
21 | CC(=O)OCCCC(C)C1=C(C)CC2OC(=O)C3(CC(c4ccc(O)cc4)=NO3)C2C1OC(C)=O (centres unmarked) [Compound 3j] | 21.95% | 88.7%
22 | CC(=O)OCCCC(C)C1=C(C)CC2OC(=O)C3(CC(c4ccccc4)=NO3)C2C1=O (centres unmarked) [Compound 4a] | 0.16% | 21.93%
23 | CC(=O)OCCCC(C)C1=C(C)CC2OC(=O)C3(CC(c4ccc(F)cc4)=NO3)C2C1=O (centres unmarked) [Compound 4b] | −8.44% | 32%
24 | CC(=O)OCCCC(C)C1=C(C)CC2OC(=O)C3(CC(c4ccc(Cl)cc4)=NO3)C2C1=O (centres unmarked) [Compound 4c] | 2.95% | 84.4%
25 | CC(=O)OCCCC(C)C1=C(C)CC2OC(=O)C3(CC(c4ccc(Br)cc4)=NO3)C2C1=O (centres unmarked) [Compound 4d] | −4.59% | 97.77%
26 | CC(=O)OCCCC(C)C1=C(C)CC2OC(=O)C3(CC(c4ccc(C#N)cc4)=NO3)C2C1=O (centres unmarked) [Compound 4e] | 3.19% | 88.22%
27 | CC(=O)OCCCC(C)C1=C(C)CC2OC(=O)C3(CC(c4ccc(C)cc4)=NO3)C2C1=O (centres unmarked) [Compound 4f] | −0.66% | 28.77%
28 | COc1ccc(C2=NOC3(C2)C(=O)OC2CC(C)=C(C(C)CCCOC(C)=O)C(=O)C23)cc1 (centres unmarked) [Compound 4g] | 5.81% | 53.28%
29 | CC(=O)OCCCC(C)C1=C(C)CC2OC(=O)C3(CC(c4ccc([N+](=O)[O-])cc4)=NO3)C2C1=O (centres unmarked) [Compound 4h] | 5.65% | 92.79%
30 | CC(=O)OCCCC(C)C1=C(C)CC2OC(=O)C3(CC(c4ccncc4)=NO3)C2C1=O (centres unmarked) [Compound 4i] | 9.09% | 83.53%
31 | C=C1C(=O)OC2CC(C)=C(C(C)CCCOC(C)=O)C(OC(C)=O)C12 (centres unmarked) [OABL, 1,6-O,O-diacetylbritannilatone, reference compound] | 3.46% | 53.24%
